Assay results published in patent US8859511B2, “Proliferation inhibitor of Helicobacter pylori bacteria” (The Noguchi Institute, priority 2008, dated 2014).
One block for each compound: values may come before it.

Columns and labels:
[1] = system: H. pylori bacteria (ATCC 43504); experiment: H. pylori bacteria-proliferation inhibitory effect under in vitro (OD values at 600 nm); type: cell-based, Helicobacter pylori
[2] = system: H. pylori bacteria (ATCC 43504 strain); experiment: Count of viable H. pylori bacteria (colony count) from stomach of orally infected meriones unguiculatus; type: in vivo
Source text: Antibacterial activities of GlcNAc derivatives towards H. pylori bacteria were investigated under in vivo by an experimental system using meriones unguiclatus infected orally with H. pylori bacteria.
Type strain of H. pylori bacteria (ATCC 43504 strain) was used as strain for infection. After stock strain thereof was recovered in Brain Heart Infusion (BHI) culture medium, which is available from Nissui Pharmaceutical Co., Ltd., including 10% horse serum, which is available from Dainippon Sumitomo Pharma Co., Ltd., and then cultured in the culture medium at 37° C. under microaerophilic condition using a microaerophilic incubator for 3 days. Finally the concentration thereof was adjusted to approximately 5×10^6 colony-forming-unit/mL (CFU/mL).
The meriones unguiculatus were fasted from 24 hours earlier of infection of Helicobacter pylori bacteria to 4 hours later of the infection thereof.
Approximately 1.0 mL of the liquid culture medium including Helicobacter pylori bacteria was administrated orally as 5×10^6 CFU/individual-animal to the fasted meriones unguiculatus. The day of infection was defined as initial day (i.e. Day 0)
Specimens prepared by using GlcNAcl-beta-O-Et of N-acetyl-glucosamine derivative according to following concentration of each group were administered.
Number of animal: 10 animals per one group
Means for administration: dietary administration
Stomach was respectively isolated from thus 10 animals of each group, and added into a centrifuging tube containing 5 mL of a phosphate buffer solution (PBS) to be homogenized with Polytron Homogenizer. 0.1 mL of the obtained homogenate was spread on Poamedia Vi Helico-S agar medium which is available from Eiken Chemical Co., Ltd. And then the bacterium were cultured at 37° C. under microaerophilic condition as same as above-mentioned incubation for culture. The formed violet colonies were counted.
They were carried out by above-mentioned statistical procedure.

[3] = Body weight and general remarks of symptoms of infected meriones unguiculatus under dietary administration
Method: 4 weeks-old male meriones unguiculatus (SPF: specific-pathogen free), which were purchased from Kyudo Co., Ltd. (Br. Yoshitomi), were preliminarily reared for 23 days and then used for the experiments. The meriones unguiculatus were reared temperature of 24 plus or minus 3° C. and under relative humidity of 55 plus or minus 15% in all room for infected animals with conditions of lighting from a.m. 7 to p.m. 7 and ventilating 18 times per hour during preliminarily reared period and experiment period. 2 or 3 meriones unguiculatus were reared in a cage. All meriones unguiculates could freely get purified water as drinkable water and powdery feed MF as dry feed which is available from Oriental Yeast Co., Ltd. Incidentally the meriones unguiculatus were marked by application of dyestuff of picric acid solution for individual discrimination.
Amount of administration: 0.3% of the specimen blended with the powdery feed
The day of infection was defined as day 0. At 1st, 3rd, 6th, 10th, 13th, 17th, 20th, 24th, and 26th days, body weight was measured by a weight scale respectively.
Daily variance of the general remarks of symptoms thereof was observed.
As regards to body weight and count of colonies, average plus/minus standard error thereof in all groups was respectively calculated. […]

[4] = type: physicochemical
Method: […]-beta-O-Et in a defined constant amount of the H. pylori bacteria-containing culture medium, which was cultured for 3 days, was measured by high performance liquid chromatography. A concentration of […]-beta-O-Et therein was determined by conversion using a calibration curve which was beforehand prepared from various definite concentrations of standard […]-beta-O-Et and peak areas of high pressure liquid chromatogram thereof. According to the determination, 6% of […]-beta-O-Et in the defined constant amount of the H. pylori bacteria-containing culture medium was reduced in comparison with initial concentration thereof. Consequently it was obvious that 6% of […]-beta-O-Et in the H. pylori bacteria-containing culture medium was decomposed to GlcNAc and ethanol (EtOH).

SMILES: CCO [ethanol, reference compound]
proliferation inhibitory effect ([1]; 5 volume % (856 mM), FIG. 3): shows proliferation inhibitory effect barely

stability in the culture medium [4]: stable
reduction of concentration in comparison with initial concentration (decomposed to GlcNAc and ethanol) ([4]; H. pylori bacteria-containing culture medium cultured for 3 days, HPLC): 6%
SMILES: CCO[C@@H]1O[C@H](CO)[C@@H](O)[C@H](O)[C@H]1NC(C)=O [GlcNAcl-beta-O-Et, Ethoxy-2-acetamide-2-deoxy-N-acetyl-beta-D-glucosaminide]
proliferation ability of H. pylori bacteria ([1]; culture medium containing not less than 5 mM): not more than 50%
proliferation ability of H. pylori bacteria ([1]; culture medium containing not less than 20 mM): not more than 5%
H. pylori bacteria proliferation inhibited ([1]; not less than 25 or 50 mM, cultivation 96 hours, vs negative control, FIG. 1): not less than 50%
count of H. pylori bacteria reduced in comparison with the control group ([2]; 300 mg/kg/day dietary, all individuals, FIG. 5(a)): ½ to ⅓
count of H. pylori bacteria reduced in comparison with the control group ([2]; 300 mg/kg/day dietary, outliers rejected by Smirnov-Grubbs test, FIG. 5(b)): ⅙
statistical significant difference of the body weight increase vs control group ([3]; 300 mg/kg/day dietary administration (0.3% in feed), to day 26, FIG. 4): not observed
abnormal general remarks of symptoms ([3]; 300 mg/kg/day dietary administration, daily observation): could not be observed

SMILES: CC(=O)N[C@H]1C(O)O[C@H](CO)[C@@H](O)[C@@H]1O (stereo partly drawn) [GlcNAc, N-acetyl-glucosamine, reference compound]
proliferation inhibitory effect ([1]; concentration as high as 50 mM, FIG. 2): does not show any proliferation inhibitory effect

SMILES: CCO[C@H]1O[C@H](CO)[C@@H](O)[C@H](O)[C@H]1NC(C)=O [GlcNAcl-alpha-O-Et]
effect on inhibiting the proliferation of H. pylori bacteria under in vitro ([1]; in comparison with GlcNAcl-beta-O-Et, FIG. 6): did not almost indicate the effect
statistical significant difference of the count of viable bacteria vs control group ([2]; 300 mg/kg/day, FIG. 8): not observed at all
count of H. pylori bacteria reduced in comparison with the control group ([2]; 1000 mg/kg/day, FIG. 8): ⅓
statistical significant difference of the count of viable bacteria vs control group ([2]; 1000 mg/kg/day, FIG. 8): eventually observed
